Ends that are not written are not given here.
Columns and labels:
in vitro = in vitro ADME; conditions: human, plasma
Source text: Data were plotted using GraphPad Prism.

C1498ff cells = assay: C1498ff leukemia model in B6 albino mice, ANT308 schedules; type: in vivo, mouse; conditions: high-dose (100 μg)
Procedure: All experimental procedures involving animals were approved by the Institutional Animal Care and Use Committee (IACUC) at Emory University. On day 0, B6 mice were injected by tail vein injection (i.v.) with 1 × 10^6 C1498 cells. DBA/2 mice were injected subcutaneously (s.c.) with 1 x 10^5 P815-luciferase mastocytoma cells. Growth of luciferase + C1498ff in B6 albino recipients was assessed by bioluminescent imaging (BLI) after mice were anesthetized, injected intraperitoneally (i.p.) with luciferin substrate (15 μg/g mouse), and imaged using an IVIS imaging system, starting at day 6 before treatment and continuing once weekly. Albino B6 mice surviving to >60 days without evidence of AML (by luciferase assay) received a second injection of a two-fold higher dose of C1498 (2 × 10^6 cells). DBA/2 mice that received P815 cells and treatment with ANT308, and survived past 60 days, were rechallenged using 2 x 10^5 P815 cells. Lymphocyte kinetics and C1498 leukemia cell burden were analyzed weekly through pterygoid venous plexus blood collection in CD45.1+ B6.SJL recipients; CD45.2 C1498 tumor cells were differentiated from CD45.1 host cells by flow cytometry. Mice that reached endpoint conditions were euthanized and counted as dead on the next day. […]

in vivo = conditions: mouse, iv
Procedure: (§1) Plasma was collected at multiple time points post-injection and analyzed by SDS-PAGE using 12% polyacrylamide gel. Densitometry was performed using ImageJ and % peptide remaining was plotted using GraphPad Prism. The images were acquired using BioRad ChemiDoc Touch Imaging System with Image Lab Touch Software.

human T cells = conditions: 3 µM
[1] = molecular target: T1, VPAC1 on Vipr2 KO murine T-cells (Mus musculus, UniProt P97751); assay: Immunostaining colocalization with VPAC1 on Vipr2 KO murine T-cells; type: cell-based; conditions: Pearson's correlation
T1 construct: Vipr2 knockout (KO) T-cells stained for VPAC1 (green); endogenous in cells; host or cells: T cells from Vipr2 knockout mice
T1 sequence (P97751 31-459): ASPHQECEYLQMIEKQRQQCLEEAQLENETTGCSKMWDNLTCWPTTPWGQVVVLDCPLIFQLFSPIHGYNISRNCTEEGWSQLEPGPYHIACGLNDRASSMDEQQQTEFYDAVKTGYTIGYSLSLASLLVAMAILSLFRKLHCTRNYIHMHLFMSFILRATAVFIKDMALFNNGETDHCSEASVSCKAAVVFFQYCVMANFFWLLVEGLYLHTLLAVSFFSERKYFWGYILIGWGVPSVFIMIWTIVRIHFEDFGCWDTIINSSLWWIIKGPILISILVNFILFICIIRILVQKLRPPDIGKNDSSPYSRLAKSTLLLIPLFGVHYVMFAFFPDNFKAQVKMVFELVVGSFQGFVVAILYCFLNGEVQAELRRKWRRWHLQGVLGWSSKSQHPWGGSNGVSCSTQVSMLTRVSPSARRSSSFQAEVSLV
Procedure: Merge + NucleusSupplementary Figure 5. Immunostaining showing 6xHis-ANT308, 6xHis-VIP, and 6xHis-Scrambled-sequence peptides colocalization with VPAC1 on murine T-cells surface. Isolated T-cells from naïve wild-type (WT) C57BL/6 mice were activated with α-CD3/α-CD28 beads and incubated with 10µM (A-F) ANT308-6xHis, (G-L) VIP-6xHis and (M-R) VIP fully SCRAM-6xHis in the presence of IL-2 (30 IU/mL) for 1 hour. The cells were fixed with 4% Paraformaldehyde, stained with VPAC1 (green), 6xHis-tag (magenta) & Hoechst (blue) and visualized on Cell-Tak coated glass-bottom plates. (A-C, G-I and M-O) en face view, (D,J & P) representative field view, (E, K & Q) 3D view, (F, L & R) line scan profiles showing colocalization patterns of ANT308-6xHis, VIP-6xHis and VIP-fully scrambled-6xHis with VPAC1 on T-cell membrane. Relative fluorescence intensity (RFI), arbitrary unit. (S) Quantification of co-localization using Pearson’s correlation coefficient (R-value). Data are shown as mean ± SD with individual data points (n=10). Statistical significance was determined by one-way Anova with post-hoc multiple comparisons. **** p < 0.0001, *** p < 0.001. Scale 2.5µm.
Supplementary Figure 6. […] (K) Quantification of co-localization using Pearson’s correlation coefficient (R-value). […] Statistical significance was determined by one-way Anova with post-hoc multiple comparisons. **** p < 0.0001. […]

[2] = In vivo plasma half-life of 6xHis-tagged peptides after i.v. injection, western blot; conditions: mouse, iv
Procedure: as §1

[3] = molecular target: VIP receptor (VIP-R) on human T cells (human (endogenous in human T cells)) (UniProt P32241)
Chain of VIP receptor (VIP-R) on human T cells (human (endogenous in human T cells)) (P32241 31-457): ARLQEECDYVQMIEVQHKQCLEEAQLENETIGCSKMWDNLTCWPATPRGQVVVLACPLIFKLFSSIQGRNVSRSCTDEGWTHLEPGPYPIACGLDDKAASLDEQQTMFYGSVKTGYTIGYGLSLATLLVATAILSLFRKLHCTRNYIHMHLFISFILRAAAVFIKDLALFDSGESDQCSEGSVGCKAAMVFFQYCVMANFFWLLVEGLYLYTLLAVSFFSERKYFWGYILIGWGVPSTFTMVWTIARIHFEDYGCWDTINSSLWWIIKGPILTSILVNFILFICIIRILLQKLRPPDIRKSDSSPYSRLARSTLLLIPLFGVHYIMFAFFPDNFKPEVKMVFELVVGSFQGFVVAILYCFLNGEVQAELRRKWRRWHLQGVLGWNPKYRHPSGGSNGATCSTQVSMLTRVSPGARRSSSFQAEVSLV

CC[C@H](C)[C@H](NC(=O)[C@H](CO)NC(=O)[C@H](CC(N)=O)NC(=O)[C@H](CC(C)C)NC(=O)[C@H](Cc1ccc(O)cc1)NC(=O)[C@H](CCCCN)NC(=O)[C@H](CCCCN)NC(=O)[C@@H](NC(=O)[C@H](C)NC(=O)[C@H](CCSC)NC(=O)[C@H](CCC(N)=O)NC(=O)[C@H](CCCCN)NC(=O)[C@H](CCCNC(=N)N)NC(=O)[C@H](CC(C)C)NC(=O)[C@H](CCCNC(=N)N)NC(=O)[C@@H](NC(=O)[C@H](Cc1ccc(O)cc1)NC(=O)[C@H](CC(N)=O)NC(=O)[C@H](CC(=O)O)NC(=O)[C@@H](NC(=O)[C@H](Cc1ccccc1)NC(=O)[C@@H](NC(=O)[C@H](C)NC(=O)[C@H](CC(=O)O)NC(=O)[C@H](CO)NC(=O)[C@@H](N)Cc1c[nH]cn1)C(C)C)[C@@H](C)O)[C@@H](C)O)C(C)C)C(=O)N[C@@H](CC(C)C)C(=O)N[C@@H](CC(N)=O)C(=O)N[C@@H](Cc1c[nH]cn1)C(=O)N[C@@H](Cc1c[nH]cn1)C(=O)N[C@@H](Cc1c[nH]cn1)C(=O)N[C@@H](Cc1c[nH]cn1)C(=O)N[C@@H](Cc1c[nH]cn1)C(=O)N[C@@H](Cc1c[nH]cn1)C(N)=O [VIP-6xHis, reference compound]
half-life (in vitro): ~15 min

KPRRPYTSDYTRLRKQMAVKKYLNLILN-NH2 [ANT308]
toxic effects in weight or behavior of treated mice (C1498ff cells): did not produce any observable toxic effects

KPRRPYTSDYTRLRKQMAVKKYLNLILNHHHHHH-NH2 [ANT308-6xHis]
half-life (in vitro): ~15 min | half-life (in vivo): ~15 min

KPRRPYTVNYTSLRKQIAVKKYLMLILN-NH2 [ANT195]
T cell viability (human T cells): ~30%

YDDHTKLKINTARLVSAQSNVFNMLKYRHHHHHH-NH2 (C-terminus assumed) [VIP fully SCRAM-6xHis]
co-localization with VPAC1 in Vipr2 KO murine T-cells [1]: shows no overlap | half-life [2]: ~30 min

KPRRPYTSDYTRLRKQMAVKKYLNLILN-NH2 [ANT308]
CD69 expression on CD4+ or CD8+ pooled human T cells treated with increasing concentrations of ANT308 (T cell activation, flow cytometry) [3]: 0.3 to 0.4 µM
